# According to patent publication US20240207453A1, “13C METHACETIN GRANULE, AND PREPARATION METHOD THEREFOR AND USE THEREOF” (BEIJING RICHEN-FORCE SCIENCE & TECHNOLOGY CO., LTD, priority 2021, published 2024):
# Legend:
# [1] = comparison of water solubility; format: physicochemical; details: against the requirements of clinical use
# [2] = comparison of stability (appearance, impurities) during storage; format: physicochemical
# Procedure: Experimental Groups 1 to 6: the 13C-methacetin granular formulations prepared in Examples 1 to 6 of the present disclosure
# Control Group 1: a powdered formulation. The respective adjuvant materials and the raw drug were weighed at a prescribed ratio and mixed uniformly in a mixer for 3 hours, whereby a powdered formulation or a powder was prepared.
# Control Group 2: another granular formulation.
# 13C-methacetin has a low solubility in water, has a slow dissolution rate, should be stirred for a long time when being dissolved in 100 ml of water in an amount of 50 mg, and thus is not convenient in oral administration. […] The powders are agglomerated during storage. The addition of the adjuvant materials helps to improve the stability of the product, and the degraded impurities are less than those of the raw drug powder. […] By comparison, the developed granular formulation has better stability and water solubility, is stable in quality, and has high value in use.
smiles,measurement,setting,value
"CC(=O)Nc1ccc(O[13CH3])cc1 [13C-methacetin, N-acetyl-p-anisidine (methoxy-13C)]",water solubility (in words),[1],low
same,Stability: Appearance (agglomeration),[2],likely to agglomerate
